Laboratory results reported in patent US7687470B2, “Avermectin and avermectin monosaccharide substituted in the 4″- and 4″ position respectively” (Syngenta Crop Protection, Inc., priority 2005, dated 2010).

Test system: Diabrotica balteata
Assay: Activity against Diabrotica balteata (sprayed maize seedlings)
Type: in vivo
Conditions: 12.5 ppm, spray on maize seedlings, second-stage larvae, after 6 days; b227: good activity corresponding to a mortality of at least 50 to 60%
Procedure: Maize seedlings are sprayed with an aqueous emulsion spray liquor which comprises 12.5 ppm of active compound and, after the spray coating has dried on, populated with 10 larvae of the second stage of Diabrotica balteata and then introduced into a plastic container. After 6 days, the reduction in the population in percent (% activity) is determined by comparing the dead larvae between the treated and the untreated plants.

## CCC(C)C1OC2(C=CC1C)CC1CC(CC=C(C)C(OC3CC(OC)C(OC4CC(OC)C(C)(NC=O)C(C)O4)C(C)O3)C(C)C=CC=C3COC4C(O)C(C)=CC(C(=O)O1)C34O)O2 (stereo not shown) [Table A8]
  activity in this test (in words): good activity
